In article PMC4965013, “Open Source Drug Discovery with the Malaria Box Compound Collection for Neglected Diseases and Beyond” (PLoS Pathogens, 2016):
Read-outs that look alike come from different tables or passages of the source.

Tests used:
[1] = test system: P. falciparum; experiment: EC50 listed in S2 Table Metabolomics (used to set the concentration tested); assay type: cell-based; settings: Plasmodium falciparum, read-out: EC50_nM
[2] = test system: P. falciparum 3D7; experiment: [3H]-hypoxanthine growth inhibition, modified HCO3- or O2; assay type: cell-based; settings: for IC50: Plasmodium falciparum
[3] = test system: P. falciparum 3D7 trophozoites; experiment: Metabolomic fingerprint profiling LC-MS; assay type: cell-based, Plasmodium falciparum; parameters: UDP-D-glucose / ADP-D-glucose: unit not given here; settings: for Acetyllysine / N-acetyl-L-ornithine / N-carbamoyl-L-aspartate / NADPH / dAMP / dCMP / dTDP / dTMP / dTTP / dihydroorotate / orotate / DLH / DLS/SDL/SID / PD / PEE / PVNF / 3-phosphoglycerate / ADP-D-glucose / ATP / CDP / D-sedoheptulose-1/7-phosphate / FAD / GMP / NAD+ / NADP+ / Octoluse Bisphosphate / Pyroglutamic acid / UDP-D-glucose / UDP-D-glucuronate / UDP-N-acetyl-glucosamine / UDP / UMP / UTP / a-ketoglutarate / citrate/isocitrate / cytidine / dATP / dGMP/AMP / fumarate / glucose-1/6-phosphate / glycerate / guanine / guanosine / hypoxanthine / indole / inosine / nicotinate / ornithine / phosphoenolpyruvate / pyruvate / ribose-phosphate / sarcosine/alanine / sn-glycerol-3-phosphate / succinate/methylmalonic acid / uridine / xanthosine: S2 Table Metabolomics; for Acetyllysine: metabolite Acetyllysine; for N-acetyl-L-ornithine: metabolite N-acetyl-L-ornithine; for N-carbamoyl-L-aspartate: metabolite N-carbamoyl-L-aspartate; for NADPH: metabolite NADPH; for dAMP: metabolite dAMP; for dCMP: metabolite dCMP; for dTDP: metabolite dTDP; for dTMP: metabolite dTMP; for dTTP: metabolite dTTP; for dihydroorotate: metabolite dihydroorotate; for orotate: metabolite orotate; for DLH: peptide DLH; for DLS/SDL/SID: peptide DLS/SDL/SID; for PD: peptide PD; for PEE: peptide PEE; for PVNF: peptide PVNF; for 3-phosphoglycerate: metabolite 3-phosphoglycerate; for ADP-D-glucose: metabolite ADP-D-glucose; for ATP: metabolite ATP; for CDP: metabolite CDP; for CDP / D-sedoheptulose-1/7-phosphate / GMP / Octoluse Bisphosphate / UDP / UMP / UTP / citrate/isocitrate / dGMP/AMP / fumarate / glucose-1/6-phosphate / glycerate / guanine / guanosine / inosine / pyruvate / sarcosine/alanine / succinate/methylmalonic acid / uridine / xanthosine: change in metabolite level after compound treatment; for D-sedoheptulose-1/7-phosphate: metabolite D-sedoheptulose-1/7-phosphate; for FAD: metabolite FAD; for GMP: metabolite GMP; for NAD+: metabolite NAD+; for NADP+: metabolite NADP+; for Octoluse Bisphosphate: metabolite Octoluse Bisphosphate; for Pyroglutamic acid: metabolite Pyroglutamic acid; for UDP-D-glucose: metabolite UDP-D-glucose; for UDP-D-glucuronate: metabolite UDP-D-glucuronate; for UDP-N-acetyl-glucosamine: metabolite UDP-N-acetyl-glucosamine; for UDP: metabolite UDP; for UMP: metabolite UMP; for UTP: metabolite UTP; for a-ketoglutarate: metabolite a-ketoglutarate; for citrate/isocitrate: metabolite citrate/isocitrate; for cytidine: metabolite cytidine; for dATP: metabolite dATP; for dGMP/AMP: metabolite dGMP/AMP; for fumarate: metabolite fumarate; for glucose-1/6-phosphate: metabolite glucose-1/6-phosphate; for glycerate: metabolite glycerate; for guanine: metabolite guanine; for guanosine: metabolite guanosine; for hypoxanthine: metabolite hypoxanthine; for indole: metabolite indole; for inosine: metabolite inosine; for 2_3-Diphosphoglyceric acid / 4-phosphopantothenate / 6-phospho-D-gluconate / FMN / IMP / Pyrophosphate / Sedoheptoluse bisphosphate / cyclic-AMP / glutathione disulfide / lactate / myo-inositol: metabolite level change after treatment; for nicotinate: metabolite nicotinate; for ornithine: metabolite ornithine; for phosphoenolpyruvate: metabolite phosphoenolpyruvate; for pyruvate: metabolite pyruvate; for ribose-phosphate: metabolite ribose-phosphate; for sarcosine/alanine: metabolite sarcosine/alanine; for sn-glycerol-3-phosphate: metabolite sn-glycerol-3-phosphate; for succinate/methylmalonic acid: metabolite succinate/methylmalonic acid; for uridine: metabolite uridine; for xanthosine: metabolite xanthosine

Cc1cc(C)cc(Nc2cc(C)nc3nc(C(F)(F)F)nn23)c1 [MMV011259]
EC50 ([1]; EC50 used for Factor_XEC50 in metabolomics): 0.0857 µM | fold change (IC50reduced/IC50normal) [2]: 2.2 | IC50 ([2]; 3D7, read-out: P. falciparum 3D7 IC50 HCO3- (2g/L), standard media): 0.059 µM | IC50 ([2]; 3D7, HCO3- reduced media, read-out: P. falciparum 3D7 IC50 HCO3- reduced): 0.132 µM | Acetyllysine [3]: -0.3746 | N-acetyl-L-ornithine [3]: -0.3462 | N-carbamoyl-L-aspartate [3]: 3.644 | NADPH [3]: -0.3366 | dAMP [3]: -0.7598 | dCMP [3]: -0.2996 | dTDP [3]: -1.147 | dTMP [3]: -1.715 | dTTP [3]: -1.159 | dihydroorotate [3]: 4.069 | orotate [3]: -1.5889 | DLH [3]: -0.4322 | DLS/SDL/SID [3]: -0.5334 | PD [3]: -0.3116 | PEE [3]: -0.461 | PVNF [3]: -0.5009 | 3-phosphoglycerate [3]: -0.8854 | ADP-D-glucose [3]: -0.2124 | ATP [3]: -0.1449 | CDP [3]: -0.8411 | D-sedoheptulose-1/7-phosphate [3]: 0.2305 | FAD [3]: -0.12 | GMP [3]: 0.1977 | NAD+ [3]: -0.2042 | NADP+ [3]: -0.294 | Octoluse Bisphosphate [3]: -0.4132 | Pyroglutamic acid [3]: -0.07042 | UDP-D-glucose [3]: -0.2997 | UDP-D-glucuronate [3]: -0.2701 | UDP-N-acetyl-glucosamine [3]: -0.5126 | UDP [3]: -1.399 | UMP [3]: -1.28 | UTP [3]: -1.133 | a-ketoglutarate [3]: -0.631 | citrate/isocitrate [3]: -1.3117 | cytidine [3]: 0.1757 | dATP [3]: 0.0538 | dGMP/AMP [3]: -0.551 | fumarate [3]: -0.9126 | glucose-1/6-phosphate [3]: -0.8385 | glycerate [3]: -1.011 | guanine [3]: -0.4133 | guanosine [3]: -0.4081 | hypoxanthine [3]: -0.3413 | indole [3]: -0.1801 | inosine [3]: -0.6501 | 2_3-Diphosphoglyceric acid [3]: -0.2003 | 4-phosphopantothenate [3]: -0.5735 | 6-phospho-D-gluconate [3]: -1.0674 | FMN [3]: -0.3875 | IMP [3]: -0.2517 | Pyrophosphate [3]: -0.0001746 | Sedoheptoluse bisphosphate [3]: -0.416 | cyclic-AMP [3]: -0.9316 | glutathione disulfide [3]: -0.2721 | lactate [3]: -0.3904 | myo-inositol [3]: -0.254 | nicotinate [3]: -0.9132 | ornithine [3]: -0.1147 | phosphoenolpyruvate [3]: -0.7531 | pyruvate [3]: -0.8729 | ribose-phosphate [3]: -0.4441 | sarcosine/alanine [3]: -0.2762 | sn-glycerol-3-phosphate [3]: -0.2294 | succinate/methylmalonic acid [3]: -0.3522 | uridine [3]: -1.619 | xanthosine [3]: -0.6868

CCC1(C)CC(CCNCc2ccccc2O)(c2ccc(C)cc2)CCO1 (stereo not shown) [MMV019406]
EC50 [1]: 0.142 µM | fold change (IC50normal/ IC50hypoxia) [2]: 2.3 | IC50 ([2]; 3D7, read-out: P. falciparum 3D7 IC50 1% O2): 0.236 µM | IC50 ([2]; 3D7, read-out: P. falciparum 3D7 IC50 5% O2): 0.54 µM | Acetyllysine [3]: -2.519 | N-acetyl-L-ornithine [3]: -1.511 | N-carbamoyl-L-aspartate [3]: -2.298 | NADPH [3]: 0.4736 | dAMP [3]: 0.284 | dCMP [3]: -0.09039 | dTDP [3]: 0.1057 | dTMP [3]: 0.004037 | dTTP [3]: -0.4082 | dihydroorotate [3]: -2.242 | orotate [3]: -1.534 | DLH [3]: -2.275 | DLS/SDL/SID [3]: -1.841 | PD [3]: -2.354 | PEE [3]: -2.262 | PVNF [3]: -2.251 | 3-phosphoglycerate [3]: -0.1564 | ADP-D-glucose [3]: -0.3945 | ATP [3]: -0.512 | CDP [3]: 0.05599 | D-sedoheptulose-1/7-phosphate [3]: -0.4162 | FAD [3]: -0.02006 | GMP [3]: -0.3975 | NAD+ [3]: 0.008417 | NADP+ [3]: -0.1427 | Octoluse Bisphosphate [3]: -0.6015 | Pyroglutamic acid [3]: 0.2098 | UDP-D-glucose [3]: -0.0942 | UDP-D-glucuronate [3]: -0.3214 | UDP-N-acetyl-glucosamine [3]: -0.03854 | UDP [3]: -0.04555 | UMP [3]: -0.1795 | UTP [3]: -0.2654 | a-ketoglutarate [3]: -0.6947 | citrate/isocitrate [3]: 0.006162 | cytidine [3]: 0.3562 | dATP [3]: 0.258 | dGMP/AMP [3]: 0.2244 | fumarate [3]: -1.313 | glucose-1/6-phosphate [3]: -0.1461 | glycerate [3]: -0.1204 | guanine [3]: -0.06557 | guanosine [3]: -0.1693 | hypoxanthine [3]: 0.07201 | indole [3]: -0.04528 | inosine [3]: -0.2118 | 2_3-Diphosphoglyceric acid [3]: -0.5043 | 4-phosphopantothenate [3]: -0.1061 | 6-phospho-D-gluconate [3]: -0.2502 | FMN [3]: -0.1097 | IMP [3]: -0.4258 | Pyrophosphate [3]: -0.3998 | Sedoheptoluse bisphosphate [3]: -0.4722 | cyclic-AMP [3]: -0.5498 | glutathione disulfide [3]: -0.423 | lactate [3]: -0.2201 | myo-inositol [3]: -0.4627 | nicotinate [3]: 0.2145 | ornithine [3]: -0.4607 | phosphoenolpyruvate [3]: -0.0532 | pyruvate [3]: 0.03561 | ribose-phosphate [3]: -0.5159 | sarcosine/alanine [3]: -1.233 | sn-glycerol-3-phosphate [3]: -0.3535 | succinate/methylmalonic acid [3]: -0.02906 | uridine [3]: -0.4944 | xanthosine [3]: -0.9536
